In the oligonucleotide strings, read from the 5' end, every base follows the letter of its sugar. An asterisk marks phosphorothioate; unmarked linkages are phosphodiester. Other units and linkages are bracketed, terminal groups are in braces. A string of capitals states the bases alone. e = 2'-O-(2-methoxyethyl) (MOE); d = 2'-deoxy (DNA); m = 2'-O-methyl
Assays:
[1] = target: T1, human TLR9 (Homo sapiens, UniProt Q9NR96); experiment: HEK-TLR9 NF-κB-luciferase reporter, ODN2006 stimulation; format: cell-based; details: HEK-TLR9; 500 nM 2′OMe or PS oligos; 200 nM ODN2006
T1 construct: HA; host or cells: 293XL-hTLR9-HA (HEK293)
T1 sequence (Q9NR96 26-1032): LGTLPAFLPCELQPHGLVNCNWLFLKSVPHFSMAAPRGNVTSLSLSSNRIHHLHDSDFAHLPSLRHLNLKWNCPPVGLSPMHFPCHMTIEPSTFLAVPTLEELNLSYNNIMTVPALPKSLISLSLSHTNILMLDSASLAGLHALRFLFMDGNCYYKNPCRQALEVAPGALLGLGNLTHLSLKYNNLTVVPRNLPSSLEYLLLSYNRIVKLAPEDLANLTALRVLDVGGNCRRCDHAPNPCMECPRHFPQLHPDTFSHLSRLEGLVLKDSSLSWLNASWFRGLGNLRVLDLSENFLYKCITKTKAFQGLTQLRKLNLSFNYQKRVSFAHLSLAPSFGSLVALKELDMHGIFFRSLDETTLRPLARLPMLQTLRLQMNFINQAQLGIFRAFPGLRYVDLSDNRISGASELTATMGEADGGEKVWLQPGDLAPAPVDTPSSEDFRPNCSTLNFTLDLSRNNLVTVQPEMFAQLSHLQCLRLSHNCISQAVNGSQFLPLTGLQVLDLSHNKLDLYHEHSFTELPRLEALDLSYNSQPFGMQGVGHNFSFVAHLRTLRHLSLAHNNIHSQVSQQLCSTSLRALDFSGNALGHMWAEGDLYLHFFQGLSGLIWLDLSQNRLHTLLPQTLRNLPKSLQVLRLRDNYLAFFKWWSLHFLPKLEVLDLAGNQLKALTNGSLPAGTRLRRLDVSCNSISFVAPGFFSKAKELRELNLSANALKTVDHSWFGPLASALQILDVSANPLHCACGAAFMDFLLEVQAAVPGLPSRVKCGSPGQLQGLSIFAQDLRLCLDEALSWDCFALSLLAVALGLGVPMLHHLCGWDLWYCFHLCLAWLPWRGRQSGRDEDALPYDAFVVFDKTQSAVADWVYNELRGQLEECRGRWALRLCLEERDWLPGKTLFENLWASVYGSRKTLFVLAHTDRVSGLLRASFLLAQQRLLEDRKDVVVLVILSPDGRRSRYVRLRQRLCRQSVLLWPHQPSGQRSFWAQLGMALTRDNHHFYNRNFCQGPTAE
Protocol: In such examples, inhibition of TLR9 activity can be identified by observation of an overall decreased TLR9 response of the cell population, or a lower proportion of cells having TLR9-positive activity as compared to positive control condition in which cells are treated with TLR9 agonist in the absence of the oligonucleotide (or in the presence of an appropriate control inhibitory agent). In one example, HEK cells are transfected with TLR9 and a NF-κB reporter and incubated with an oligonucleotide and then stimulated with a TLR9 agonist. TLR9 activity can then be determined by a luciferase assay. TLR9 activity can also be analysed by measuring cytokine levels (e.g., IFN, IL-6, TNF and IL-12), for example by ELISA.
(§1) For cGAS stimulations, cells were treated for indicated duration with ASOs, prior to transfection with ISD70 (human cells) or ISD45 (mouse cells) (the ASOs were not washed off prior to ISD transfection unless otherwise indicated). The cGAS ligands ISD45 (Stetson and Medzhitov, 2006) and ISD70 (also known as VACV-70 (Unterholzner et al., 2010)) (Table 1) were resuspended as follows: 5 1d of sense and 5 μl of antisense strands at 10 μg/μl were added to 90 μl PBS under sterile conditions, heated at 75° C. for 30 min, prior to letting cool down at room temperature and aliquoting (stock at 1 μg/1 l). The ISDs were transfected at a concentration of […] at a ratio of 1 μg:1 μl with Lipofectamine 2000 in Opti-MEM (Thermo Fisher Scientific). HEK-TLR3, HEK-TLR7 and […] were treated with indicated concentration of ASOs for 20-50 min, prior to stimulation with poly(I:C) (Invivogen), R848 (Invivogen), Motolimod (MedChemExpress) and the Class B CpG oligonucleotides ODN 2006 (synthesised by IDT and resuspended in RNase-free TE buffer [Table 1]), respectively. The TLR2/1 agonist PAM3CSK4 (Invivogen), the TLR4 agonist lipopolysaccharide (Invivogen), the Class B CpG oligonucleotides ODN 1826 (synthesised by IDT and resuspended in RNase-free TE buffer), the mouse Sting agonist DMXAA (Cayman) and the human STING agonist (compound #3 from (Raanjulu et al., 2018), referred to as GSK herein—kind gift from Cancer Therapeutics CRC, Australia) were used at indicated concentrations. Aspirin (Sigma—A2093) was resuspended in pure medium to 10 mM, filter sterilised and added to the cells at 2 mM final. All ASOs were synthesised by Integrated DNA Technologies (IDT), and resuspended in RNase-free TE buffer, pH 8.0 (Thermo Fisher Scientific). Cell viability was assessed by adding 1× fresh resazurin solution to the wells (10λ solution made up with 7 mg resazurin [Sigma—R7017] dissolved in 3.5 ml PBS, sterile filtered at […]) for 4 h, prior to reading at with a Fluostar OPTIMA (BMG LABTECH) plate-reader (fluorescence: Excitation 535 nm, Emission 590); wells with medium only and 1× resazurin were used as blanks.
Following transfection, the cells were collected from the 6-wells and aliquoted into 96-wells, just before ASO and overnight TLR stimulation (as above described). Similarly, the LL171 cells expressing and ISRE-Luc reporter were treated overnight. The next day, the cells were lysed in 40 μl (for a 96-well plate) of 1× Glo Lysis buffer (Promega) for 10 min at room temperature. […] was then subjected to firefly luciferase assay using 40 μl of Luciferase Assay Reagent (Promega). Luminescence was quantified with a Fluostar OPTIMA (BMG LABTECH) luminometer.

[2] = target: T2, human TLR7 (Homo sapiens, UniProt Q9NYK1); experiment: HEK-TLR7 NF-κB-luciferase reporter, R848 stimulation; format: cell-based; details: HEK-TLR7; for inhibition of R848 sensing by TLR7, 6 h pre-treatment (in words): 400 nM 5-nt 2′OMe oligo 6 h before R848 1 μg/ml; for inhibition of R848 sensing by TLR7, short pre-treatment (in words): 100-500 nM oligo 20-50 min before R848 1 μg/ml
T2 construct: HA; host or cells: 293XL-hTLR7-HA (HEK293)
T2 sequence (Q9NYK1 27-1049): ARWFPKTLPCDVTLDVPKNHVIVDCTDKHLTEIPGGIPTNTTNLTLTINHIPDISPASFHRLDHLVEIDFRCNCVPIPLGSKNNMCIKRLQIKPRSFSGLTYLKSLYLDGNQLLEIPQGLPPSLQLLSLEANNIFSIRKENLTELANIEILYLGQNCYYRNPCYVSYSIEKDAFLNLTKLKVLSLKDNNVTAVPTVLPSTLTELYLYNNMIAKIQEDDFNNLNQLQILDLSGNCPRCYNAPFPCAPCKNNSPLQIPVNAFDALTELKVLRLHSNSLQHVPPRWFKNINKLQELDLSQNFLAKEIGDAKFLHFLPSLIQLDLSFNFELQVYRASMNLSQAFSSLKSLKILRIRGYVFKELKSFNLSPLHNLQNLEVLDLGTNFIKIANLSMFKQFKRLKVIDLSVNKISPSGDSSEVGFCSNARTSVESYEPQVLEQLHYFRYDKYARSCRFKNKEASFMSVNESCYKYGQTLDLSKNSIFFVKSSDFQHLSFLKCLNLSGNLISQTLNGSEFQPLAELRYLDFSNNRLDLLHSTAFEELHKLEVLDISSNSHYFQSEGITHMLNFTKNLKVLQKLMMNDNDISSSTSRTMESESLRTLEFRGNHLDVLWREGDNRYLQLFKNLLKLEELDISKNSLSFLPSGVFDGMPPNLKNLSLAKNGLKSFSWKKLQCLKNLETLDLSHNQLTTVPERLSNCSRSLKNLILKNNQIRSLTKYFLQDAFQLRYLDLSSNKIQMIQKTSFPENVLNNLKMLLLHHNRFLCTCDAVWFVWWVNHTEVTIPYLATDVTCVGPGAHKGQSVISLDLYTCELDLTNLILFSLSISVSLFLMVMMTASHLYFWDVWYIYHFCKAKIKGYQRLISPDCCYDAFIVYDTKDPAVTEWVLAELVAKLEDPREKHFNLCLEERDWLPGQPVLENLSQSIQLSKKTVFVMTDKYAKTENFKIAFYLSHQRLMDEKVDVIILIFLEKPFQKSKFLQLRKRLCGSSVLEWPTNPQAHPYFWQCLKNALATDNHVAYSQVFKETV
Protocol: In such examples, inhibition of TLR7 activity can be identified by observation of an overall decreased TLR7 response of the cell population, or a lower proportion of cells having TLR7-positive activity as compared to positive control condition in which cells are treated with TLR7 agonist in the absence of the oligonucleotide (or in the presence of an appropriate control inhibitory agent). In one example, 293XLhTLR7 (referred to as HEK-TLR7) cells are transfected with pNF-κB-Luc4 reporter, incubated with an oligonucleotide, and then stimulated with R848. TLR7 activity can be determined by a luciferase assay, which measures activated NF-κB by luminescence. TLR7 activity can also be analysed by measuring cytokine levels, for example by ELISA. […] TLR7 activity may then be assessed by the gene or protein expression of TLR7-responsive genes, such as Tnfα and Oas3.
as §1
Following transfection, the cells were collected from the 6-wells and aliquoted into 96-wells, just before ASO and overnight TLR stimulation (as above described). Similarly, the LL171 cells expressing and ISRE-Luc reporter were treated overnight.

| Substance | inhibition of TLR9 sensing of ODN2006 (in words) [1] | inhibition of R848 sensing by TLR7, 6 h pre-treatment (in words) [2] | inhibition of R848 sensing by TLR7, short pre-treatment (in words) [2] |
| --- | --- | --- | --- |
| mU*mC*mC*mG*mG*G*T*C*G*T*A*G*T*T*G*mC*mU*mU*mC*mC (UCCGGGTCGTAGTTGCUUCC; antisense; sugars from the 5' end m5 d10 m5, all phosphorothioate, methylation of C not given here) [ASO11Mut2] | conferred significant TLR9 inhibition | – | – |
| mC*mG*mU*mU*mU [ShortMut1v3] | – | failed to do so | – |
| mC*mA*mU*mU*mA*G*G*T*G*C*A*G*A*A*A*mU*mC*mU*mU*mC (mC*mA*mU*mU*mA*dG*dG*dT*dG*dC*dA*dG*dA*dA*dA*mU*mC*mU*mU*mC) [ASO8] | significantly inhibited TLR9 sensing of ODN2006 | – | – |
| mC*mA*mC*mU*mU*C*G*T*G*G*G*G*T*C*C*mU*mU*mU*mU*mC (CACUUCGTGGGGTCCUUUUC; antisense; sugars from the 5' end m5 d10 m5, all phosphorothioate, methylation of C not given here) [[HPRT]662] | strongest inhibition of this series of ASOs | – | – |
| mG*mC*mG*mG*mU*A*T*C*C*A*T*A*G*T*C*mU*mC*mC*mA*mU (mG*mC*mG*mG*mU*dA*dT*dC*dC*dA*dT*dA*dG*dT*dC*mU*mC*mC*mA*mU; antisense) [C2-ASO2-A] | significantly better inhibitors of TLR9 than their parent ASO | – | – |
| mG*mG*mA*mG*mC*T*T*C*G*A*G*G*C*C*C*mC*mA*mG*mG*mC (mG*mG*mA*mG*mC*dT*dT*dC*dG*dA*dG*dG*dC*dC*dC*mC*mA*mG*mG*mC; antisense) [ASO6] | significantly inhibited TLR9 sensing of ODN2006 | – | – |
| /52MOErT/*/i2MOErG/*/i2MOErT/*/i2MOErC/*/i2MOErC/*T*T*G*C*A*C*G*T*G*C*/i2MOErC/*/i2MOErT/*/i2MOErA/*/i2MOErA/*/32MOErG/ (TGTCCTTGCACGTGCCTAAG; sugars from the 5' end e5 d10 e5, all phosphorothioate, methylation of C not given here) [F5-Mut] | – | – | significantly less inhibitory |
| mC*mC*mA*mA*mC*A*C*T*T*C*G*T*G*G*G*mG*mU*mC*mC*mU (CCAACACTTCGTGGGGUCCU; antisense; sugars from the 5' end m5 d10 m5, all phosphorothioate, methylation of C not given here) [[HPRT]666] | strongly inhibited TLR9 | – | – |
| mA*mC*mU*mU*mC*G*T*G*G*G*G*T*C*C*T*mU*mU*mU*mC*mA (ACUUCGTGGGGTCCTUUUCA; antisense; sugars from the 5' end m5 d10 m5, all phosphorothioate, methylation of C not given here) [[HPRT]661] | significantly limited inhibition | – | – |
| mC*mA*mA*mC*mA*C*T*T*C*G*T*G*G*G*G*mU*mC*mC*mU*mU (CAACACTTCGTGGGGUCCUU; antisense; sugars from the 5' end m5 d10 m5, all phosphorothioate, methylation of C not given here) [[HPRT]665] | only poorly inhibitory | – | – |
| mG*mG*mU*mA*mU [ShortMut1] | – | sufficient to inhibit R848 sensing | no inhibition was observed |
